± gives the expanded uncertainty stated by the source.
Tests used:
[1] = 100 kPa, Liquid; for speed of sound: Frequency=2 MHz, Linear variable-path acoustic interferometer; for mass density: Vibrating tube method
[2] = xn = mol fraction of the nth substance listed; conditions: 100 kPa, Liquid; for speed of sound: Frequency=2 MHz, Linear variable-path acoustic interferometer; for mass density: Vibrating tube method

Structure (SMILES)	speed of sound ([1]; 298.15 K)	mass density ([1]; 298.15 K)	mass density ([1]; 303.15 K)	speed of sound ([1]; 308.15 K)	mass density ([1]; 308.15 K)	mass density ([1]; 313.15 K)	mass density ([1]; 318.15 K)	further results
CCCCOCCO [2-butoxyethan-1-ol]	1305 ± 8 m/s	896.46 ± 4 kg/m3	892.22 ± 4 kg/m3	1275 ± 7.8 m/s	887.97 ± 4 kg/m3	883.7 ± 4 kg/m3	879.42 ± 4 kg/m3	
COCCO [2-methoxyethan-1-ol]	1341.6 ± 8.2 m/s	960.29 ± 4 kg/m3	955.84 ± 4 kg/m3	1302 ± 7.9 m/s	951.16 ± 4 kg/m3	946.49 ± 4 kg/m3	941.89 ± 4 kg/m3	
OCc1ccccc1 [benzenemethanol]	1534.5 ± 9.3 m/s	1041.05 ± 4 kg/m3	1037.15 ± 4 kg/m3	1496 ± 9.1 m/s	1033.32 ± 4 kg/m3	1029.46 ± 4 kg/m3	1025.59 ± 4 kg/m3	
OCc1ccccc1 [benzenemethanol] + CCCCOCCO								speed of sound ([2]; 298.15 K, x1 = 1): 1534.5 ± 9.3 m/s; mass density ([2]; 298.15 K, x1 = 1): 1041.05 ± 4 kg/m3; mass density ([2]; 303.15 K, x1 = 1): 1037.15 ± 4 kg/m3; speed of sound ([2]; 308.15 K, x1 = 1): 1496 ± 9.1 m/s; mass density ([2]; 308.15 K, x1 = 1): 1033.32 ± 4 kg/m3; mass density ([2]; 313.15 K, x1 = 1): 1029.46 ± 4 kg/m3; mass density ([2]; 318.15 K, x1 = 1): 1025.59 ± 4 kg/m3
COCCO [2-methoxyethan-1-ol] + OCc1ccccc1								speed of sound ([2]; 298.15 K, x2 = 0): 1341.6 ± 8.2 m/s; mass density ([2]; 298.15 K, x2 = 0): 960.29 ± 4 kg/m3; mass density ([2]; 303.15 K, x2 = 0): 955.84 ± 4 kg/m3; speed of sound ([2]; 308.15 K, x2 = 0): 1302 ± 7.9 m/s; mass density ([2]; 308.15 K, x2 = 0): 951.16 ± 4 kg/m3; mass density ([2]; 313.15 K, x2 = 0): 946.49 ± 4 kg/m3; mass density ([2]; 318.15 K, x2 = 0): 941.89 ± 4 kg/m3
OCc1ccccc1 [benzenemethanol] + CCOCCO								speed of sound ([2]; 298.15 K, x1 = 1): 1534.5 ± 9.3 m/s; mass density ([2]; 298.15 K, x1 = 1): 1041.05 ± 4 kg/m3; mass density ([2]; 303.15 K, x1 = 1): 1037.15 ± 4 kg/m3; speed of sound ([2]; 308.15 K, x1 = 1): 1496 ± 9.1 m/s; mass density ([2]; 308.15 K, x1 = 1): 1033.32 ± 4 kg/m3; mass density ([2]; 313.15 K, x1 = 1): 1029.46 ± 4 kg/m3; mass density ([2]; 318.15 K, x1 = 1): 1025.59 ± 4 kg/m3
CCOCCO [2-ethoxyethan-1-ol]	1301.4 ± 8 m/s	925.36 ± 4 kg/m3	920.72 ± 4 kg/m3	1274.8 ± 7.9 m/s	916.11 ± 4 kg/m3	911.47 ± 4 kg/m3	906.9 ± 4 kg/m3	
